# Reference: ChEMBL document CHEMBL5465560, “Selectivity Literature for EUbOPEN Chemogenomic Library” (2024)
# Columns and labels:
# [1] = biological target: Serine/threonine-protein kinase B-raf (Homo sapiens) (UniProt P15056); experiment: Selectivity interaction (Kinase panel (DSF assay)) EUB0001558a BRAF
# [2] = biological target: T1, Receptor-interacting serine/threonine-protein kinase 4 (Homo sapiens) (UniProt P57078); experiment: Selectivity interaction (KinomeScan (DiscoverX)) EUB0001079a RIPK4; conditions: at 1 µM
# T1 sequence (whole entry): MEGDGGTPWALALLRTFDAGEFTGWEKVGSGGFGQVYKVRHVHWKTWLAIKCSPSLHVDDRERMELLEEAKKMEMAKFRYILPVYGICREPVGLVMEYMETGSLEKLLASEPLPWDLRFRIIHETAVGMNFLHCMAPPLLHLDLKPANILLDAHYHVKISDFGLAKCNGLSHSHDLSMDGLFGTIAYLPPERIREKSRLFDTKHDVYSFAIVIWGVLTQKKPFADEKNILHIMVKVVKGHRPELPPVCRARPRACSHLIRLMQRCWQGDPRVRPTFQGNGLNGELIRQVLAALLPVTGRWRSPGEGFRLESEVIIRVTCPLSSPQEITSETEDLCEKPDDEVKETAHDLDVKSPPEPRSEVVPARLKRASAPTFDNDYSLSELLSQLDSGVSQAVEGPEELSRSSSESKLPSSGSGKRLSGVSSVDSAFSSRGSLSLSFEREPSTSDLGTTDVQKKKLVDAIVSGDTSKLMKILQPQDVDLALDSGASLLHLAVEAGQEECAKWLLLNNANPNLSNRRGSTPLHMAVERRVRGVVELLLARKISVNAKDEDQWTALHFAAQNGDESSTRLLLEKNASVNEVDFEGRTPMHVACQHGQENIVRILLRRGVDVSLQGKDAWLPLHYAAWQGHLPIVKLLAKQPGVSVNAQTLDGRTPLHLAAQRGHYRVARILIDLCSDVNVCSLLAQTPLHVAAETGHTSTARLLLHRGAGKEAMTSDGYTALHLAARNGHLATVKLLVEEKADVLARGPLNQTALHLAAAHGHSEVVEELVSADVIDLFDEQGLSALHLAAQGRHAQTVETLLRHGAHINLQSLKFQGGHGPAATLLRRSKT
# [3] = biological target: Tyrosine-protein kinase CSK (Homo sapiens) (UniProt P41240); experiment: Selectivity interaction (ActivX KiNativ screen (kinase selectivity in THP-1 cell lysates)) EUB0000639a CSK; assay type: subcellular; conditions: lysate, at 0.2 µM
# Tyrosine-protein kinase CSK (Homo sapiens), sequence (P41240 2-450 limits assumed): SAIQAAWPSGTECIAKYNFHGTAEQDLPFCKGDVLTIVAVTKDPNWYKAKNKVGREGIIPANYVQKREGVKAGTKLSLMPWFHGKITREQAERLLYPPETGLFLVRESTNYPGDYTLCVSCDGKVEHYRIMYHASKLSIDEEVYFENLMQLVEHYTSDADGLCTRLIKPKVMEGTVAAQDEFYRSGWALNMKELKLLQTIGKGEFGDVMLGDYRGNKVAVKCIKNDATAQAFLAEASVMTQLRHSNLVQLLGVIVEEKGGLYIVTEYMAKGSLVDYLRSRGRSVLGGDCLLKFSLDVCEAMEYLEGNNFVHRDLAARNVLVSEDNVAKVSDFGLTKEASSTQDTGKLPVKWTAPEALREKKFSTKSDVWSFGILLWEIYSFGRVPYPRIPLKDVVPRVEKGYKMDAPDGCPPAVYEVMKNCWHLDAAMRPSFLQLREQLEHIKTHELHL
# [4] = biological target: Ribosomal protein S6 kinase alpha-2 (Homo sapiens) (UniProt Q15349); experiment: Selectivity interaction (ActivX KiNativ screen (kinase selectivity in THP-1 cell lysates)) EUB0000639a RPS6KA2; assay type: subcellular; conditions: lysate, at 0.04 µM
# Ribosomal protein S6 kinase alpha-2 (Homo sapiens), sequence (Q15349 whole entry): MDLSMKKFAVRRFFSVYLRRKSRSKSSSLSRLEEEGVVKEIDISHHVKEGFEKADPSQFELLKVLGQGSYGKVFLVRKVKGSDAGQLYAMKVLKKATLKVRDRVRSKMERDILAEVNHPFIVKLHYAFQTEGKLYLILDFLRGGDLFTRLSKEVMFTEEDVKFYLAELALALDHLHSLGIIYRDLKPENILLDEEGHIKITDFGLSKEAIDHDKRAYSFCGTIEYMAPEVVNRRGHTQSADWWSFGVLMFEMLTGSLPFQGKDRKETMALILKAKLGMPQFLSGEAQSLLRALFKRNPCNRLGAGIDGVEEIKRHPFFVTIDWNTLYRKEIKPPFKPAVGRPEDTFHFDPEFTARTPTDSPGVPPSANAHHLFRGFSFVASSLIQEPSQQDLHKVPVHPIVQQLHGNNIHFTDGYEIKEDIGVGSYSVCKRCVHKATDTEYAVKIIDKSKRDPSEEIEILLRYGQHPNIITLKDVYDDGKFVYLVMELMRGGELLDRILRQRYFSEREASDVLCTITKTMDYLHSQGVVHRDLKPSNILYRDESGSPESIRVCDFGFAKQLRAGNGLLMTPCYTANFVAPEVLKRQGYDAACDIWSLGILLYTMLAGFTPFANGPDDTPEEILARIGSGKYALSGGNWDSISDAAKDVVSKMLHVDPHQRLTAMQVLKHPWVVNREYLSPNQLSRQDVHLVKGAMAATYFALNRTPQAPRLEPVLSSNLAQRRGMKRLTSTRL
# [5] = biological target: T2, Serine/threonine-protein kinase PLK3 (Homo sapiens, UniProt Q9H4B4); experiment: Selectivity interaction (KinomeScan (DiscoverX)) EUB0000607a PLK3; conditions: at 10 µM
# T2 sequence (Q9H4B4 whole entry, looked up): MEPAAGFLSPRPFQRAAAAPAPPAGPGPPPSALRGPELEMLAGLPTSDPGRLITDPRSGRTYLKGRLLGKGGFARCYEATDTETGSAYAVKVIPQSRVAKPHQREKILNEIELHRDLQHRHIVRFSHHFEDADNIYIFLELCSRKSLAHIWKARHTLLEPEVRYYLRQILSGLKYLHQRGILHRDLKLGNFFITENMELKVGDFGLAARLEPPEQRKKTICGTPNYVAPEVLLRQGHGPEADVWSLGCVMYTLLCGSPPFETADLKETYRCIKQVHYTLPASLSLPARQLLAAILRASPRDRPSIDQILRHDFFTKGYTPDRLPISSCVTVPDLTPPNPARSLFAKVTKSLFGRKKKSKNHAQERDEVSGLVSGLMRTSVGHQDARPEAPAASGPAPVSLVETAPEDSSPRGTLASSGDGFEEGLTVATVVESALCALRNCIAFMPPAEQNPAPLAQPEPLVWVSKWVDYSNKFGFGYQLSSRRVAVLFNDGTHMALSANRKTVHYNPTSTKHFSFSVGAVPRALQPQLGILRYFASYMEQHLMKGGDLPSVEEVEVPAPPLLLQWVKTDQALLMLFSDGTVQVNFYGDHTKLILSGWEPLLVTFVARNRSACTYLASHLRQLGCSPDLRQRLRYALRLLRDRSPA
# [6] = biological target: T2, Serine/threonine-protein kinase PLK3; experiment: Selectivity interaction (KinomeScan (DiscoverX)) EUB0000045b PLK3
# [7] = biological target: Serine/threonine-protein kinase PLK1 (Homo sapiens, UniProt P53350); experiment: Selectivity interaction (KinomeScan (DiscoverX)) EUB0000045b PLK1
# Serine/threonine-protein kinase PLK1, sequence (P53350 whole entry): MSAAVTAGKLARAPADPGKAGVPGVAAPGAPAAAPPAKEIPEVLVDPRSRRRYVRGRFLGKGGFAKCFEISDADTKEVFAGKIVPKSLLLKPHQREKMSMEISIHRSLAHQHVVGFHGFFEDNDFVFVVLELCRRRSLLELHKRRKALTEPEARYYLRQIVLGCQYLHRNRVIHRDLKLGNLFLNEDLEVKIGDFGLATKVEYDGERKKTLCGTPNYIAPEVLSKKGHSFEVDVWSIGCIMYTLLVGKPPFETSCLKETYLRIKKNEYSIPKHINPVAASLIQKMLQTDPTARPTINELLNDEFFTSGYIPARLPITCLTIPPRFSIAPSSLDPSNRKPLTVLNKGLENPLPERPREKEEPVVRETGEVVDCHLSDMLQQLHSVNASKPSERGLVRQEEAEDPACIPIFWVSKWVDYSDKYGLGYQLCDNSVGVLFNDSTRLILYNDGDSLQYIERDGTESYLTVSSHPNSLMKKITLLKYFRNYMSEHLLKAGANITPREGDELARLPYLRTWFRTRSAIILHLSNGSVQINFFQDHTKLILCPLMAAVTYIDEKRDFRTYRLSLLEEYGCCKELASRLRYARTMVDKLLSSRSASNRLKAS
# Activated CDC42 kinase 1 = Activated CDC42 kinase 1 (Homo sapiens, UniProt Q07912); experiment: Selectivity interaction (Kinase panel (Carna Biosciences)) EUB0001542aTs TNK2; conditions: at 1 µM
# Activated CDC42 kinase 1, sequence (Q07912 whole entry, looked up): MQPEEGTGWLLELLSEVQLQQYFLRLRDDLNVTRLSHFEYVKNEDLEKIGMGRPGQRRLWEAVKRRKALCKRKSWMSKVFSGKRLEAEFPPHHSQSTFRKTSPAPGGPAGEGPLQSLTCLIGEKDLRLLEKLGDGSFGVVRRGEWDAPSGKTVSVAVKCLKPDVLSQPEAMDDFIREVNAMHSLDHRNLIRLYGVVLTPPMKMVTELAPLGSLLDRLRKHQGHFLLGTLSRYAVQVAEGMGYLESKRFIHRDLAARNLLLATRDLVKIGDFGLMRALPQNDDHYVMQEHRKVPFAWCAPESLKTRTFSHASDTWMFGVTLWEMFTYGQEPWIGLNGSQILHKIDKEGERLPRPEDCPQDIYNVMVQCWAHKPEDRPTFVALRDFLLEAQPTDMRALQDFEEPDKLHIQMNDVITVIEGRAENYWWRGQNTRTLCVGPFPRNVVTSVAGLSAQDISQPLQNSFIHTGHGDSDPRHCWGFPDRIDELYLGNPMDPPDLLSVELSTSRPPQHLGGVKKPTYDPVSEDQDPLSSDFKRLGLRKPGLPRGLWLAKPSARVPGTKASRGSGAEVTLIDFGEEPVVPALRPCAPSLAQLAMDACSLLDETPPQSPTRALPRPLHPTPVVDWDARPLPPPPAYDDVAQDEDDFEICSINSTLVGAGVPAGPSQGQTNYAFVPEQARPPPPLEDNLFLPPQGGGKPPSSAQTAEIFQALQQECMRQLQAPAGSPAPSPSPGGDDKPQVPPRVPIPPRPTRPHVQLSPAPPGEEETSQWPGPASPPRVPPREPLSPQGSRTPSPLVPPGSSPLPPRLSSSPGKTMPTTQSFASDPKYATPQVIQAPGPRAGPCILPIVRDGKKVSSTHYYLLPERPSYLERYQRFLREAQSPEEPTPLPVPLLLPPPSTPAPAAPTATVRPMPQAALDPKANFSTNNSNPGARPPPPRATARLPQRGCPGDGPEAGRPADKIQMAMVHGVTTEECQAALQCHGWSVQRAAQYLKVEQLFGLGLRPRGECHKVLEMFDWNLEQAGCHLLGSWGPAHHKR
# [8] = biological target: T3, Megakaryocyte-associated tyrosine-protein kinase (Homo sapiens) (UniProt P42679); experiment: Selectivity interaction (Ambit KINOMEscan and KiNATiv profiling in Jurkat cells) EUB0000090b MATK; assay type: cell-based; conditions: at 1 µM
# T3 sequence (whole entry): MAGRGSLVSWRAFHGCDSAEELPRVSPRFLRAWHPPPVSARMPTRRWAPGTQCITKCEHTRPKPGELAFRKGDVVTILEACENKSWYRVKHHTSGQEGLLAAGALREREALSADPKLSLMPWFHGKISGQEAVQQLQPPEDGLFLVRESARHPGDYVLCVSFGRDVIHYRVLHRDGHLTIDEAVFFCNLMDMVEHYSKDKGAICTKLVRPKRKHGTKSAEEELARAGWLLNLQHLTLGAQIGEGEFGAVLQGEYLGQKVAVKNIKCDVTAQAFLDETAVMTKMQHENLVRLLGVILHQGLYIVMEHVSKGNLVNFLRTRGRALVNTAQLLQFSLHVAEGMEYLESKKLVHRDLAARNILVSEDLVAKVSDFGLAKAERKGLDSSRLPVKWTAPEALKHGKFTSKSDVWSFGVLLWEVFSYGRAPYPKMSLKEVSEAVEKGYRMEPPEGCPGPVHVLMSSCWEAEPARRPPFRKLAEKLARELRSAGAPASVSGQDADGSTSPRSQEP
# [9] = biological target: T4, Serine/threonine-protein kinase Nek5 (Homo sapiens) (UniProt Q6P3R8); experiment: Selectivity interaction (KinomeScan (DiscoverX)) EUB0001619a NEK5; conditions: at 1 µM
# T4 sequence (whole entry): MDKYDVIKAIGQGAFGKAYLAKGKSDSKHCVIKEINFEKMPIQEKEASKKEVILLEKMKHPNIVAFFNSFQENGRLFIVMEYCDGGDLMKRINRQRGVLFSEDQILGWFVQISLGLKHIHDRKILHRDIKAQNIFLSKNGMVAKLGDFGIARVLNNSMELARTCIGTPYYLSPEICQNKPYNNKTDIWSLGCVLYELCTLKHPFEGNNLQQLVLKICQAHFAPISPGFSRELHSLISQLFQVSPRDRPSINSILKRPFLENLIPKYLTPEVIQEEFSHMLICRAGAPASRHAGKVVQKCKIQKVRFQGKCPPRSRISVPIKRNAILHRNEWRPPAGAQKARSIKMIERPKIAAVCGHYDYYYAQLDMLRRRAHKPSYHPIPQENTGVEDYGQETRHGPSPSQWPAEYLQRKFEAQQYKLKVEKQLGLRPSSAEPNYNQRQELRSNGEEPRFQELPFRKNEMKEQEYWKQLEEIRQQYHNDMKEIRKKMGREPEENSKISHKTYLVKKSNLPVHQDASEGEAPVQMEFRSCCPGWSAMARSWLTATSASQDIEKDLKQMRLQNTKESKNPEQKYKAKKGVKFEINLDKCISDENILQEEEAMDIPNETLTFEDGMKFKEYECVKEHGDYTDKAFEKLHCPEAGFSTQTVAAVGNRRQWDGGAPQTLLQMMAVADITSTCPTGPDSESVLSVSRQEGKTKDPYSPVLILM
# Serine/threonine-protein kinase B-raf (Homo sapiens), sequence (P15056 whole entry): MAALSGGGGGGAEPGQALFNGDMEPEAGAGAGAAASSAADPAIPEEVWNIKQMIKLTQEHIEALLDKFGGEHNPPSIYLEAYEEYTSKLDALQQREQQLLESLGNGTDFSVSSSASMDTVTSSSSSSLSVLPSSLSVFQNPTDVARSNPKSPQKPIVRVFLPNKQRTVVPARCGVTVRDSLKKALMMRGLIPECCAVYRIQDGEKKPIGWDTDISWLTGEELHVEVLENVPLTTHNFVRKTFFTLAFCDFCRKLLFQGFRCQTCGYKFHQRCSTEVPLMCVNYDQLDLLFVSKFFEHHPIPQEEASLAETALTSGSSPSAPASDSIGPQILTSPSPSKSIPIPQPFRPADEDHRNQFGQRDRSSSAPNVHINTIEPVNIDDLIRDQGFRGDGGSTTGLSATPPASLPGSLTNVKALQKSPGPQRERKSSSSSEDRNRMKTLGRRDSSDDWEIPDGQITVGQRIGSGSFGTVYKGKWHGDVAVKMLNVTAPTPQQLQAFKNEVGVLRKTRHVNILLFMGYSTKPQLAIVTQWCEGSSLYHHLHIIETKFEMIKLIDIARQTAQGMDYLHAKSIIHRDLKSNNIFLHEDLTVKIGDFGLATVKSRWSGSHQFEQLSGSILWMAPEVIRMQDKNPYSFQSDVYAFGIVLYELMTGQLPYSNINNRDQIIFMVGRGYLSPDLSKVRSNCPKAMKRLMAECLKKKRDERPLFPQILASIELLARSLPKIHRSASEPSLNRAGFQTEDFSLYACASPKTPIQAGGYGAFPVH
structure (smiles),measurement,setting,value
CC(C)(O)[C@H](F)CN1Cc2cc(NC(=O)c3cnn4cccnc34)c(N3CCOCC3)cc2C1=O,dTM,[1],0 K
Nc1cnc(N2CCc3cc(S(=O)(=O)Nc4c(F)cc(Cl)cc4F)cc(N4CCCC4=O)c32)nc1 [TP-020n],% of control,[2],76%
CC[C@@H]1[C@H](F)C(=O)N[C@@H]1COc1nccc2cc(C(N)=O)c(OC)cc12 [ZIMLOVISERTIB],% of inhibition,[3],-6.8%
same,% of inhibition,[4],-7.6%
CNC(=O)Nc1ccc(-c2nc(N3CC4CCC(C3)O4)c3cnn(C4CCC5(CC4)OCCO5)c3n2)cc1,% of control,[5],100%
C=CC(=O)Nc1cc(-n2c(=O)ccc3cnc4ccc(-c5ccc(NS(C)(=O)=O)cc5)cc4c32)ccc1C,% of control,[6]; at 1 µM,100%
same,% of control,[6]; at 10 µM,100%
same,% of control,[7]; at 1 µM,100%
same,% of control,[7]; at 10 µM,100%
Cn1cc(Nc2nccc(N3CC4CCC(C3)N4C(=O)[C@@H]3CC3(F)F)n2)cn1,% of inhibition,Activated CDC42 kinase 1,82%
CN(C)C/C=C/C(=O)Nc1ccc(C(=O)N2CCCC(Nc3ncc(Cl)c(-c4c[nH]c5ccccc45)n3)C2)cc1 (configuration not stated),% of control,[8],94%
N#Cc1cccc(-c2c[nH]c3ncnc(N4CCOCC4)c23)c1,% of control,[9],100%
